Measured values published in ChEMBL document CHEMBL1201862, “PubChem BioAssay data set” (2004).
The source made the active and inactive calls.

Experiments:
Keap1/Nrf2 = Keap1/Nrf2 (Homo sapiens, UniProt Q14145); assay: Keap1-Nrf2 protein-protein interaction inhibitors, dose response, biochemical, fluorescence polarization, cherry-picked samples (AID 588683)
[1] = molecular target: T1, Rac GTPase-activating protein 1 (Homo sapiens, UniProt Q9H0H5); assay: MgcRacGAP GTPase-activating activity inhibitors, confirmation, biochemical, ADP Hunter fluorescence, primary and confirmatory (AID 624330); assay type: functional
T1 sequence (Q9H0H5 whole entry): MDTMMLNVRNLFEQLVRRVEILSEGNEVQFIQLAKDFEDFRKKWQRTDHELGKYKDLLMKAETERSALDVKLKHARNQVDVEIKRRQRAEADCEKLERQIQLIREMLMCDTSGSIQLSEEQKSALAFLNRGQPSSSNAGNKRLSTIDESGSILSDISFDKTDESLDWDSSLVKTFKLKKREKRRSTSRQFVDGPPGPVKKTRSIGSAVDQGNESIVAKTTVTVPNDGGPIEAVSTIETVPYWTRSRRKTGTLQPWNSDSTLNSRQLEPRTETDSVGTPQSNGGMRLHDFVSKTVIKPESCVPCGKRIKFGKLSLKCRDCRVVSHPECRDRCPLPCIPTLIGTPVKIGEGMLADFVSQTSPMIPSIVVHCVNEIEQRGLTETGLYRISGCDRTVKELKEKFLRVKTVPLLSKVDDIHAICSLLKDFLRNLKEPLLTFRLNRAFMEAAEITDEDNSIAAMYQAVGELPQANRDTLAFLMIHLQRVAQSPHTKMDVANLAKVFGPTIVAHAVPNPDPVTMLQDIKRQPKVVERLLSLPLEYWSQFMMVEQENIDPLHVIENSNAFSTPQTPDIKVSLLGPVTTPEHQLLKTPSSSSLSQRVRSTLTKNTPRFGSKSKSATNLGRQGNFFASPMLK

[2] = molecular target: Glucose-6-phosphate 1-dehydrogenase (Homo sapiens, UniProt P11413); assay: human G6PD enzyme inhibitors, dose response, selectivity assay for P. falciparum G6PD inhibitor project, biochemical, fluorescence (AID 504792); assay type: functional
[3] = molecular target: T2, Corticotropin-releasing factor receptor 2/Corticotropin-releasing factor-binding protein (Homo sapiens, UniProt P24387+Q13324); assay: activators of CRF receptor 2 with binding protein – uHTS hits, confirmation (AID 602473); assay type: functional; details: read-out: EC50_Mean
T2 sequence (Q13324 whole entry): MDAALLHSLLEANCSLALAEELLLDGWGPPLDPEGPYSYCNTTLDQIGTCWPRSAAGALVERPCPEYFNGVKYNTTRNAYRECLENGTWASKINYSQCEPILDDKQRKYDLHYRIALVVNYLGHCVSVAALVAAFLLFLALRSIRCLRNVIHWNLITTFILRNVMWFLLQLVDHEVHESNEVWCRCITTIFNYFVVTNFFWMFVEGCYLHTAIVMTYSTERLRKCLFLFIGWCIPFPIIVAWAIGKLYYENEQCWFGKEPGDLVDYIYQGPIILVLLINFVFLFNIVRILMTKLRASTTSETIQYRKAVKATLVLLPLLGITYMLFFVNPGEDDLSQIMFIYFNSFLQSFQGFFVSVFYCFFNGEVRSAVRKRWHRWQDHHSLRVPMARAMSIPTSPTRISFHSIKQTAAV
T2 sequence (P24387 whole entry): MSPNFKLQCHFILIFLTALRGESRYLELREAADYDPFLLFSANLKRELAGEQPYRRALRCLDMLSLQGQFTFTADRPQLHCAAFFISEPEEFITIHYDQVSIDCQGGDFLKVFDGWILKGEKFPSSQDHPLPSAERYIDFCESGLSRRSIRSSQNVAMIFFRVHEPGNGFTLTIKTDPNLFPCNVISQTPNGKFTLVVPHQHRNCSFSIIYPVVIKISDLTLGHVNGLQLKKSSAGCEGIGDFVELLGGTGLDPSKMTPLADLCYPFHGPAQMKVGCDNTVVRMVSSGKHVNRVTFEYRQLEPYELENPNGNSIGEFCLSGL

Escherichia coli [4] = assay: microbe, parasite or virus in culture
HeLa = assay: HeLa cell cytotoxicity, dose response, cytotoxicity control for MITF activator project, CellTiter-Glo luminescence, cherry-pick samples (AID 540259); assay type: functional, cell-based; details: Homo sapiens
Escherichia coli [5] = assay: microbe, parasite or virus in culture; remark: listed apart in the source
HEK293 = assay: cells; assay type: functional, cell-based; details: Homo sapiens
[6] = molecular target: T3, Nuclear receptor subfamily 0 group B member 1 (Homo sapiens, UniProt P51843); assay: Luminescence-based cell-based high throughput dose response assay for inhibitors of the orphan nuclear receptor subfamily 0, group B, member 1 (DAX1; NR0B1). [Related pubchem assays (depositor defined):AID504766, AID504790]; assay type: functional
T3 sequence (P51843 whole entry): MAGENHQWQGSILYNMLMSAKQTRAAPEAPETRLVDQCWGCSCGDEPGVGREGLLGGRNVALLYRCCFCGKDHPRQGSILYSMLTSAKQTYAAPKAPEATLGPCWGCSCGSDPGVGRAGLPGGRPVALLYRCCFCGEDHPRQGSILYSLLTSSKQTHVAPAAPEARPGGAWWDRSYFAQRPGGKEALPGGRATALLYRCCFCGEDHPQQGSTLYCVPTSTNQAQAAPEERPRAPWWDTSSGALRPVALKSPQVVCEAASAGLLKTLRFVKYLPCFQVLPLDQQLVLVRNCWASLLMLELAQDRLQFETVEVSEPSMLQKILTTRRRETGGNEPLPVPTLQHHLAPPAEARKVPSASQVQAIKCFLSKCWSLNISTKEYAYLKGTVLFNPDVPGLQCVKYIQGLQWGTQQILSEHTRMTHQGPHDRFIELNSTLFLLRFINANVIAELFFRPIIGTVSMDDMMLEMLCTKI

[7] = NIH-3T3 fibroblast cytotoxicity, dose response, cytotoxicity control, cell-based, fluorescence, Alamar Blue, secondary assay (AID 2327); assay type: functional;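 further: NIH-3T3 mouse fibroblasts cultured with fluconazole at 8 µg/mL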
CHO = assay: cytotoxicity in TLR9-MyD88 CHO cells, dose response, cytotoxicity control for TLR9-MyD88 binding inhibitor project, cell-based, luminescence (AID 588339); assay type: functional, hamster; details: Cricetulus griseus;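 further: CHO cells stably coexpressing TLR9 and MyD88 fusions from primary screen; compound exposure lasted 48 hours before viability readout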
Beta Lactamase = Beta Lactamase (Pseudomonas aeruginosa, UniProt Q932Y6); assay: beta-lactamase reporter inhibitor potency, dose response, artefact control for TLR9-MyD88 binding inhibitor project, BLA reporter cells, FRET fluorescence (AID 588341); assay type: cell-based;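 further: cell based assay in CHO-K1 cells stably expressing beta-lactamase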
[8] = molecular target: Dual specificity tyrosine-phosphorylation-regulated kinase 1A (Rattus norvegicus, UniProt Q63470); assay type: biochemical, Homo sapiens
[9] = molecular target: Beta-2 adrenergic receptor (Homo sapiens, UniProt P07550); assay: beta2AR agonists driving receptor internalization, dose response, cell-based, FAP fluorogen, flow cytometry, cherry pick 1 (AID 588763); assay type: functional
[10] = molecular target: T4, Polyadenylate-binding protein 1 (Homo sapiens, UniProt P11940); assay: PABP1 MLLE–PAM2 binding inhibitor potency, dose response, biochemical, fluorescence polarization, FITC-PAM2 peptide (AID 602259); assay type: functional; details: read-out: IC50_Mean
[11] = molecular target: T4, Polyadenylate-binding protein 1; assay: PABP1 MLLE–PAM2 interaction inhibitors, dose response, miRNA deadenylation inhibitor project, biochemical, fluorescence polarization, Cy5-PAM2 peptide, secondary (AID 602260); assay type: functional; details: read-out: IC50_Mean
Large T antigen = Large T antigen (Simian virus 40, UniProt P03070); assay type: functional, Betapolyomavirus macacae;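 further: Confirmatory-stage PubChem screen for compounds that inhibit SV40 T antigen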
[12] = Luminescence Cell-Based Dose Confirmation HTS to Identify Activators of 5'UTR Stem-Loop Driven Alpha-Synuclein mRNA Translation in H4 Neuroglioblastoma Cells. [Related pubchem assays: 1829 (Project Summary), 1814 (Primary HTS)]; assay type: functional
[13] = Luminescence Cell-Based Dose Response HTS to Identify Activators of Luciferase Translation or Activity in H4 […] Cells. [Related pubchem assays: 1829 (Project Summary), 1814 (Primary HTS)]; assay type: functional
Genome polyprotein = Genome polyprotein (dengue virus type 2, UniProt P29990); assay: Dengue-2 NS5 methyltransferase inhibitors, primary screen, biochemical, confirmation dose response (AID 588689); assay type: functional
H4 = assay: Luminescence Cell-Based Dose Response HTS to Identify Activators of 5'UTR Stem-Loop Driven Prion Protein mRNA Translation in H4 Neuroglioblastoma Cells. [Related pubchem assays: 1829 (Project Summary), 1814 (Primary HTS)]; assay type: functional; details: Homo sapiens
INS1 = assay: beta cell apoptosis inhibitors, cytokine rescue, dose response, luminescence, retest (AID 449756); assay type: functional, cell-based; details: Rattus norvegicus;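 further: cell death triggered by IL-1 beta plus TNF-alpha plus IFN-gamma mixture; protective hits raise ATP signal compared with cytokine alone wells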
Vero = Vero cell cytotoxicity, cytotoxicity control for flavivirus capping enzyme inhibitors (AID 588742); assay type: functional; details: Chlorocebus sabaeus
[14] = molecular target: Photoreceptor-specific nuclear receptor (Homo sapiens, UniProt Q9Y5X4); assay type: functional, cell-based;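 further: CHO-S cells with Gal4-NCOR and VP16-NR2E3 two-hybrid luciferase reporter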
H9c2 = assay: cells; assay type: functional, cell-based; details: Rattus norvegicus, H9c2, Myocardium;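 further: confirmatory concentration-response retest of ultra-high-throughput screening hits for modulation of myocardial damage; cell death induced by hydrogen peroxide oxidative stress; compound pretreatment for 60 min then peroxide exposure for 2 h; potency is for protecting the cells against peroxide damage rather than for killing them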
[15] = molecular target: T5, Ubiquitin-conjugating enzyme E2 N (Homo sapiens, UniProt P61088); assay type: functional;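 further: Dose-response confirmation in a TR-FRET assay detecting UBC13-driven polyubiquitin chain formation, inhibition measured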
T5 sequence (P61088 whole entry): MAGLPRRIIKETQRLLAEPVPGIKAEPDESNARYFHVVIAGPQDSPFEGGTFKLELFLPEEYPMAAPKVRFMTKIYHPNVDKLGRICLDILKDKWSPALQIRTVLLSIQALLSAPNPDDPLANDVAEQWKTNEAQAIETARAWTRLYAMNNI

Beta Lactamase, sequence (Q932Y6 whole entry): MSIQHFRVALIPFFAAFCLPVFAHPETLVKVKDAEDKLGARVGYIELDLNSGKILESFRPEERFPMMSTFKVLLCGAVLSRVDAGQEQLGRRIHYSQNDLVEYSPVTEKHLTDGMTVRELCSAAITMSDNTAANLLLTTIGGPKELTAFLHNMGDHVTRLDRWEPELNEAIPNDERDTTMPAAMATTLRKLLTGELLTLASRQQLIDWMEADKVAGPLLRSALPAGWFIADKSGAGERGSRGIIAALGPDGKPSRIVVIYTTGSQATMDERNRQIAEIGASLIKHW
Beta-2 adrenergic receptor, sequence (P07550 whole entry): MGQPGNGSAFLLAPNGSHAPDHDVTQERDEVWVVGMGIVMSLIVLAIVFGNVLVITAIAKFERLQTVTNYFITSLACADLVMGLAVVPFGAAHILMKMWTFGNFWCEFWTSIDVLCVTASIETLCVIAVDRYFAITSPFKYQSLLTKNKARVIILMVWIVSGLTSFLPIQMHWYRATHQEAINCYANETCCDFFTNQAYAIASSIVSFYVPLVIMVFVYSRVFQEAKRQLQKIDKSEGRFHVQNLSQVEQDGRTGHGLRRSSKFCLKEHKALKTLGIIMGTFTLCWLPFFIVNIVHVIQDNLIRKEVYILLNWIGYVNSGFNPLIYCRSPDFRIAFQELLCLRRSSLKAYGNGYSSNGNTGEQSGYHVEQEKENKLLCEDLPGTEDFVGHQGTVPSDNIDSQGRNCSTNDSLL
Large T antigen, sequence (P03070 whole entry): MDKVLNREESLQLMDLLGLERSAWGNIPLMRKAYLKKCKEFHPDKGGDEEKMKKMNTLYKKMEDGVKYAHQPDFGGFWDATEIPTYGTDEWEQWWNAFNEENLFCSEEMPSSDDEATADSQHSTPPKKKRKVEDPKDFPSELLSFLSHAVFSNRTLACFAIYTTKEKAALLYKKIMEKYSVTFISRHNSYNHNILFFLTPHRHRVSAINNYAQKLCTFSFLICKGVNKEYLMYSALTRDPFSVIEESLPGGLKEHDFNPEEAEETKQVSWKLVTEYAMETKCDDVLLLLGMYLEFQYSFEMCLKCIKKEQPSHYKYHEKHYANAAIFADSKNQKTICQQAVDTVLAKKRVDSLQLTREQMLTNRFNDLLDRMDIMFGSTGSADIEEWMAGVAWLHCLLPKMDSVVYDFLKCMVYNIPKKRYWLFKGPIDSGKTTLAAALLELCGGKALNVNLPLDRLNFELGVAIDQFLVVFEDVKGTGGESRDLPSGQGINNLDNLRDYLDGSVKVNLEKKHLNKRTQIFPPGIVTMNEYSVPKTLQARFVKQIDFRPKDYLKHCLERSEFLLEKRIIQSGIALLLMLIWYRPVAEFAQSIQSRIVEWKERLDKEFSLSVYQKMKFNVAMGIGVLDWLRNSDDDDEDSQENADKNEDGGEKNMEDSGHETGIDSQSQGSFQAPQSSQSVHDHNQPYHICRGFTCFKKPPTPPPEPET
T4 sequence (P11940 whole entry): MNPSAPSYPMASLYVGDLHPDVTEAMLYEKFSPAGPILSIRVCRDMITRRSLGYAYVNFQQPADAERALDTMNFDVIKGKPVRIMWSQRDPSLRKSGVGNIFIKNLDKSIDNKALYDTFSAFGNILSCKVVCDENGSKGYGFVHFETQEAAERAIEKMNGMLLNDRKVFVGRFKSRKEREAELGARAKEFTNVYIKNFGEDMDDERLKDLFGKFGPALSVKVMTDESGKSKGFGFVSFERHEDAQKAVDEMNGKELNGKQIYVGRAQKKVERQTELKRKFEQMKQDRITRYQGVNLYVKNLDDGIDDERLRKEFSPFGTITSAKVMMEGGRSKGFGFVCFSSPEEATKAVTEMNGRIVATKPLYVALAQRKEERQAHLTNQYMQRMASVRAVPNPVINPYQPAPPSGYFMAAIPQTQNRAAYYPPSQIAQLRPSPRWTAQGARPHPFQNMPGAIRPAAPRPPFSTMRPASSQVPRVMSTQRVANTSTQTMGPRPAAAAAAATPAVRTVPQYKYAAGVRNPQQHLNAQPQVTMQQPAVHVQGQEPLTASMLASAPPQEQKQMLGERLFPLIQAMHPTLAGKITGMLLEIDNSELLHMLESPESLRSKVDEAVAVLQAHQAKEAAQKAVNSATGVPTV
Glucose-6-phosphate 1-dehydrogenase, sequence (P11413 whole entry): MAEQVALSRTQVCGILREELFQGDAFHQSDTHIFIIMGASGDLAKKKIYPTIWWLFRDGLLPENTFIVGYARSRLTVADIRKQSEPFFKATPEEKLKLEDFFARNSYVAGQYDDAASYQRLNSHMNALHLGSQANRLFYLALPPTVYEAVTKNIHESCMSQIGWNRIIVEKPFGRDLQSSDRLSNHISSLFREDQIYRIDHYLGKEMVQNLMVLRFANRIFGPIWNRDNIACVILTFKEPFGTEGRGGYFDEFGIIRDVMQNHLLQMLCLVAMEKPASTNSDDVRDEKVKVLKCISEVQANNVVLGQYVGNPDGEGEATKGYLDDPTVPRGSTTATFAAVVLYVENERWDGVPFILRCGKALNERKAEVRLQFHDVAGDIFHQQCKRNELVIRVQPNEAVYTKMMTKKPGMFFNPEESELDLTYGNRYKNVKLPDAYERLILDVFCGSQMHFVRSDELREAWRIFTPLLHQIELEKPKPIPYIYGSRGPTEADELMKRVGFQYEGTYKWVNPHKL
Keap1/Nrf2, sequence (Q16236 whole entry): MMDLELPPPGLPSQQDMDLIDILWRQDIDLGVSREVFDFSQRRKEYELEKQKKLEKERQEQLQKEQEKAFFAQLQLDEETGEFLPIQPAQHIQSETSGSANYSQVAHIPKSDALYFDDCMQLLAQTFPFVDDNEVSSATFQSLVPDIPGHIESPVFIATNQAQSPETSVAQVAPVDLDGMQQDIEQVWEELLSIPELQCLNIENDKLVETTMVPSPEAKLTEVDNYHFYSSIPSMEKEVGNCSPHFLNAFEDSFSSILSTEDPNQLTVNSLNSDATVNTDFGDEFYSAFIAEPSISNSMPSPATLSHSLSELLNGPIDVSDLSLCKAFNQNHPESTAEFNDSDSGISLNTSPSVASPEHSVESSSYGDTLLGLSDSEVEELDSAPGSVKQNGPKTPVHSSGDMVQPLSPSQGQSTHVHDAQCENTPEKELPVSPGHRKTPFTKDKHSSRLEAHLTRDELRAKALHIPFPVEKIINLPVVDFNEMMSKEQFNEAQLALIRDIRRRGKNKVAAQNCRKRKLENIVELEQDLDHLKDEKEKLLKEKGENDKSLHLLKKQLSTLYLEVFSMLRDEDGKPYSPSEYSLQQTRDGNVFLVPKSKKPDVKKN
Keap1/Nrf2, sequence (Q14145 whole entry): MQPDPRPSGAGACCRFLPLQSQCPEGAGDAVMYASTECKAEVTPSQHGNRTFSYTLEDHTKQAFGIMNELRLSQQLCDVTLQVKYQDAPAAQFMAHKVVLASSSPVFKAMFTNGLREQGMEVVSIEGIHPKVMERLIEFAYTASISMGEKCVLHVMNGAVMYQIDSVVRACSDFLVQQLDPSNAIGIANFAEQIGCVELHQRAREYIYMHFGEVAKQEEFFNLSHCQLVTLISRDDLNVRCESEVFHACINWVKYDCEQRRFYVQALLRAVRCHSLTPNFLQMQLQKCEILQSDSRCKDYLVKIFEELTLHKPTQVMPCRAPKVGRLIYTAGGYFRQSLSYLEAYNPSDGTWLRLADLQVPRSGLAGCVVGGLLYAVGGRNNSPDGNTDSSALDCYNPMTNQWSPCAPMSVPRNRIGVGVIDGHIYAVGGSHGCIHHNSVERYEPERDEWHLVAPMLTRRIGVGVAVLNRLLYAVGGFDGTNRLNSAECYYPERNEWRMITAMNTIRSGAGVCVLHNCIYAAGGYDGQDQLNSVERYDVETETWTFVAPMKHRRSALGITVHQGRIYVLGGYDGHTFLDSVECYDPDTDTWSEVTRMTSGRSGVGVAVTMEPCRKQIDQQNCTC
Genome polyprotein, sequence (P29990 2492-3391 limits assumed): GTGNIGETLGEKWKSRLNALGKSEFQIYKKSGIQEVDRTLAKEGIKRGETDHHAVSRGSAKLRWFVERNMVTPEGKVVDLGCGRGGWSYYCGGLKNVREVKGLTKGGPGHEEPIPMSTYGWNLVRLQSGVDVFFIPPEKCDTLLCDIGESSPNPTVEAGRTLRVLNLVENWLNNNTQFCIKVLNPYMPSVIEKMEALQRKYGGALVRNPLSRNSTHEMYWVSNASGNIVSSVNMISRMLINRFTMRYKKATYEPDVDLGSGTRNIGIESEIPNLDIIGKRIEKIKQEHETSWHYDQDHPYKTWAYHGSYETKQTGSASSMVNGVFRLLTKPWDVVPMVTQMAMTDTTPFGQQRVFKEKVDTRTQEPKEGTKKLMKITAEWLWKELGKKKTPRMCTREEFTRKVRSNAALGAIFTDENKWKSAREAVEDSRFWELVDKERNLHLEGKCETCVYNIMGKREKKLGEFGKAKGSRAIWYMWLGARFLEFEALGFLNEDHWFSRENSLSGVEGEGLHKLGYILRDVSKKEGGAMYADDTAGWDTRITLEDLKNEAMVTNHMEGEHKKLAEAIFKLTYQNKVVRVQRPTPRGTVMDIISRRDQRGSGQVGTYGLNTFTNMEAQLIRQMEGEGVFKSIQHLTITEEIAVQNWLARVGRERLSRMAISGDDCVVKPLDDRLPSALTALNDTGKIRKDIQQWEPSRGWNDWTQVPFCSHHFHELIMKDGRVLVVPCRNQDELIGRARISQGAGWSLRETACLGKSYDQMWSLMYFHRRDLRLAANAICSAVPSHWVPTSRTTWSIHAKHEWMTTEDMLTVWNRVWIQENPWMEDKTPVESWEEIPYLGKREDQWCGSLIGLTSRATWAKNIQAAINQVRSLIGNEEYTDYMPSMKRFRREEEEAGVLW

Nc1ccc2c3c(cccc13)-c1ccccc1-2
AC50 (Keap1/Nrf2): 2.01 µM (active) | IC50 [1]: 39.2 µM (active) | IC50 [2]: > 80 µM (inactive) | EC50 [3]: 4.79 µM (active)

CCCCCN(C(=O)CCC(=O)OCC(=O)N(C)Cc1ccc(C)cc1)c1c(N)n(CCCC)c(=O)[nH]c1=O
AC50 (Escherichia coli [4]): > 380 µM (inactive)

C/C(Cl)=C/CSc1nn2c(=O)c3ccccc3nc2s1
AC50 (HeLa): 36.3 µM (active)

COc1ccccc1Nc1nc(C)cs1
AC50 (Escherichia coli [5]): 26.8 µM (active) | AC50 (Escherichia coli [4]): 60.7 µM (active)

CCc1nc(NC(C)(C)C)c2cnn(-c3ccccc3)c2n1
AC50 (HeLa): 134 µM (active)

c1cnc(SCCOc2ccc3c(c2)CCC3)nc1
IC50 (HEK293): > 67.6 µM (inactive) | IC50 [6]: > 67.6 µM (inactive) | EC50 [7]: > 160 µM (inactive)

Brc1cc(Br)c2nc(-c3ccc(N4CCOCC4)cc3)ccc2c1
IC50 (CHO): > 49.8 µM (inactive) | IC50 (Beta Lactamase): 2.37 µM (active)

N#C/C(=C\c1cn[nH]c1-c1ccc(Cl)cc1)C(=O)NCc1ccccc1
AC50 (Escherichia coli [5]): 12.4 µM (active) | AC50 (Escherichia coli [4]): 300 µM (active)

Oc1ccc(Nc2nc(-c3ccccc3)nc3ccccc23)cc1
AC50 [8]: 0.461 µM (active)

NC(=O)CC(NC(=O)c1cccc(Br)c1)c1ccc(N2CCN(c3ccccn3)CC2)c([N+](=O)[O-])c1 (configuration not stated)
EC50 [9]: 225 nM (active) | AC50 [8]: 66.8 µM (active)

Oc1cccc(NC(=S)N=Nc2c(O)[nH]c3ccccc23)c1
IC50 [10]: > 66 µM (inactive) | AC50 [8]: 12.4 µM (active) | IC50 [11]: > 66 µM (inactive)

CN(C(=O)c1cc2sccc2n1C)C1CCCCC1
AC50 (HeLa): 218 µM (active)

CCN(CC)c1ccc(-c2nc3cnccn3c2NC2CCCC2)cc1
IC50 (CHO): > 16.6 µM (inactive) | IC50 (Large T antigen): 21.9 µM (active) | IC50 (Beta Lactamase): 5.29 µM (active)

COC(=O)/C(=C1\Oc2ccc(C(C)(C)C)cc2S1)C(F)(F)F
AC50 (HeLa): 57.7 µM (active)

O=C1NC(=O)C2C1C(c1ccc([N+](=O)[O-])cc1)=NN2Cc1ccccc1 (configuration not stated)
IC50 (CHO): > 49.8 µM (inactive) | IC50 (Beta Lactamase): 10.3 µM (inactive)

NC(=O)CC(NC(=O)c1ccc(Br)cc1)c1ccc(N2CCN(c3ccccn3)CC2)c([N+](=O)[O-])c1 (configuration not stated)
EC50 [9]: 213 nM (active)

CC(=O)c1csc(Nc2ccccc2Cl)n1
IC50 (HEK293): > 67.6 µM (inactive) | IC50 [6]: > 67.6 µM (inactive)

O=[N+]([O-])c1ccc(-[n+]2ccc3ccccc3c2)c([N+](=O)[O-])c1
EC50 [12]: > 120 µM (not active) | EC50 [13]: 11.4 µM (active) | EC50 [9]: 10200 nM (inactive) | IC50 (Large T antigen): 79.1 µM (active) | IC50 [2]: > 80 µM (inactive) | IC50 (Genome polyprotein): > 100 µM (active) | EC50 (H4): > 120 µM (not active) | AC50 (INS1): 3.36 µM (active) | CC50 (Vero): 24.9 µM (active)

Cc1ccc(S(=O)(=O)c2ccc([N+](=O)[O-])o2)cc1
IC50 (CHO): 0.745 µM (active) | IC50 [14]: 2.9 µM (active) | IC50 (Beta Lactamase): 11.2 µM (inactive)

CC(=O)Nc1ccc(S(=O)(=O)N(Cc2cccnc2)Cc2cc3ccccc3nc2O)cc1
EC50 [9]: 801 nM (active) | IC50 (H9c2): > 79 µM (inactive)

COC(=O)c1c(-c2ccc(S(C)(=O)=O)cc2)sc2ccc(OC)cc12
AC50 (HeLa): 28 µM (active) | IC50 [15]: > 20 µM (inactive)

CC(=O)NC(Cc1c[nH]c2ccccc12)C(=O)O (configuration not stated)
IC50 (HEK293): > 67.6 µM (inactive) | IC50 [6]: > 67.6 µM (inactive)

Cc1cc(C)c2c(N)c(C(=O)N/N=C/c3ccccc3)sc2n1
IC50 (HEK293): > 67.5 µM (inactive) | IC50 [6]: > 67.5 µM (inactive)

O=C(O)c1ccc(/C=N/Nc2nc3ccccc3[nH]2)cc1
IC50 (HEK293): > 67.6 µM (inactive) | IC50 [6]: > 67.6 µM (inactive)

COc1ccc(C(=O)/C=C/c2ccc(N(C)C)cc2)c(OC)c1
IC50 (CHO): > 49.8 µM (inactive) | IC50 (Beta Lactamase): 4.71 µM (active)

CS(=O)(=O)c1ccc([C@@H](O)[C@@H](CF)NC(=O)C(Cl)Cl)cc1 [FLORFENICOL]
AC50 (Escherichia coli [4]): 3.83 µM (active)
